{"source": "patent US8822754B2", "about": "“Ecdysone receptor-based inducible gene expression system” (Intrexon Corporation, priority 2000, dated 2014)", "key": {"DmVgRXR + MmRXR": {"target": "T1, DmVgRXR + MmRXR (Drosophila melanogaster, UniProt P34021, E282G/G283S/G286V)", "T1 construct": "host or cells: CHO, NIH3T3, 293 or CV1 cells (one cell line per assay)", "T1 sequence (P34021 whole entry E282G/G283S/G286V, the tested form may be a part)": "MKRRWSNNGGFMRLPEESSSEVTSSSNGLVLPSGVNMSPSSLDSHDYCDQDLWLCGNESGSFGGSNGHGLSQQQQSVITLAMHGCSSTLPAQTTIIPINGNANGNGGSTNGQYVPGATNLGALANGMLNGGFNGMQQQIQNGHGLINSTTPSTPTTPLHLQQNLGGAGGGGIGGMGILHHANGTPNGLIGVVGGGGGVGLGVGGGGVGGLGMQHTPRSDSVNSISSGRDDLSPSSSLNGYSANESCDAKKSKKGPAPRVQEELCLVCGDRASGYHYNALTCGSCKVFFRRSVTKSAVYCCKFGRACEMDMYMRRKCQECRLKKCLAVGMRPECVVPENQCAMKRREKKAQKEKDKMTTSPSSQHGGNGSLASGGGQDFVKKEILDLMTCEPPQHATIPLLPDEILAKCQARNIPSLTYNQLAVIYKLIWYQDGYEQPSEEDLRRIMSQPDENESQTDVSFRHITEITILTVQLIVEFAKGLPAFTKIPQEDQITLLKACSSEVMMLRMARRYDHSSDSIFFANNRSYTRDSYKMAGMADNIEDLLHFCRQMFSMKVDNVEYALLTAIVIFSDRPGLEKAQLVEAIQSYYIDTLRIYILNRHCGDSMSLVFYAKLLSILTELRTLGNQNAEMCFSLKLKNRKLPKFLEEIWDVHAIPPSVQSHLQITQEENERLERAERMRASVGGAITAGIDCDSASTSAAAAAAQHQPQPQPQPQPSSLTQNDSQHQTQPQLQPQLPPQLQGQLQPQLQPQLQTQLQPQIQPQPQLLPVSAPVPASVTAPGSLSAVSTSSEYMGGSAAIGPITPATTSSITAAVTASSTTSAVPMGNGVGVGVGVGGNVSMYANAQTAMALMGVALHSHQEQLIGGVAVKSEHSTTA", "T1 sequence (P28700 whole entry, further chain, the tested form may be a part)": "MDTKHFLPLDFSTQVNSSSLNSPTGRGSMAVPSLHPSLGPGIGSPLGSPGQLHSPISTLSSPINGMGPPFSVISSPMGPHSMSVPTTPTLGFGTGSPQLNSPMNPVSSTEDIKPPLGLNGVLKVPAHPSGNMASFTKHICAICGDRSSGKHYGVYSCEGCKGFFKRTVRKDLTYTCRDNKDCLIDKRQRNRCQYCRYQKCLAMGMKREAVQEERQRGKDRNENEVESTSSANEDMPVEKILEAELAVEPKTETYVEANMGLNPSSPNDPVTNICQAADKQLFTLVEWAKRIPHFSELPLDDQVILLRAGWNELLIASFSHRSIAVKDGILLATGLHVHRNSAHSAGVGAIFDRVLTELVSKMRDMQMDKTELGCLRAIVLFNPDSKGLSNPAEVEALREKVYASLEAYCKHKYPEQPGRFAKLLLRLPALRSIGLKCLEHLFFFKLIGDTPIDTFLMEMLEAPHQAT", "experiment": "Transactivation of reporter genes through switch 1.8 in CHO cells", "assay_type": "cell-based", "settings": "switch 1.8 DmVgRXR + MmRXR, pIND(SP1)LacZ", "text": "This system was purchased from Invitrogen Corp., Carlsbad, Calif. It comprises a Drosophila melanogaster EcR (“DmEcR”) with a modified DNABD fused to VP16AD and placed under the control of a CMV promoter (SEQ ID NO: 60). Full length MmRXR (SEQ ID NO: 53) was placed under the control of the RSV promoter (SEQ ID NO: 61). The reporter, pIND(SP1)LacZ, contains five copies of a modified ecdysone response element (“EcRE”, E/GRE), three copies of an SP1 enhancer, and a minimal heat shock promoter, all of which were placed upstream to the LacZ reporter gene.\nThe cells were harvested and reporter activity was assayed.\n(§1) Cells were harvested 24-48 hr after adding ligands. […] Twenty μl of lysate was assayed."}, "GAL4EcR + VP16RXR": {"test_system": "GAL4EcR + VP16RXR", "experiment": "Transactivation of reporter genes through switch 1.1 in 3T3 cells", "text": "In various cellular backgrounds, including mammalian cells, insect ecdysone receptor (EcR) heterodimerizes with retinoid X receptor (RXR) and, upon binding of ligand, transactivates genes under the control of ecdysone response elements. Applicants constructed several EcR-based gene expression cassettes based on the spruce budworm Choristoneura fumiferana EcR (“CfEcR”; full length polynucleotide and amino acid sequences are set forth in SEQ ID NO: 49 and SEQ ID NO: 50, respectively), C. fumiferana ultraspiracle (“CfUSP”; full length polynucleotide and amino acid sequences are set forth in SEQ ID NO: 51 and SEQ ID NO: 52, respectively), and mouse Mus musculus RXRα (MmRXRα; full length polynucleotide and amino acid sequences are set forth in SEQ ID NO: 53 and SEQ ID NO: 54, respectively). The prepared receptor constructs comprise a ligand binding domain of EcR and of RXR or of USP; a DNA binding domain of GAL4 or of EcR; and an activation domain of VP16. The reporter constructs include a reporter gene, luciferase or LacZ, operably linked to a synthetic promoter construct that comprises either GAL4 or EcR/USP binding sites (response elements). Various combinations of these receptor and reporter constructs were cotransfected into CHO, NIH3T3, CV1 and 293 cells. […] Reporter gene expression activities were assayed at 24 hr or 48 hr after ligand addition.\nThe same procedures described for CHO cells were followed for 3T3 cells as well with two modifications. The cells were plated when they reached 50% confluency. 125,000 or 50,000 or 25,000 cells were plated per well of 6- or 12- or 24-well plates respectively. The GAl4EcR/VP16RXR and reporter vector DNAs were transfected into NIH3T3 cells, the transfected cells were grown in medium containing PonA, MurA, N-(2-ethyl-3-methoxybenzoyl)-N′-(3,5-dimethylbenzoyl)-N′-t-butylhydrazine, or N-(3,4-(1,2-ethylenedioxy)-2-methylbenzoyl)-N′-(3,5-dimethylbenzoyl)-N′-tert-butylhydrazine for 48 hr. The ligand treatments were performed as described in the CHO cell section above.\nCells were harvested 24-48 hr after adding ligands. 125, 250, or 500 μl of passive lysis buffer (part of Dual-luciferase™ reporter assay system from Promega Corporation) were added to each well of 24- or 12- or […] respectively. The plates were placed on a rotary shaker for 15 min. Twenty μl of lysate was assayed. Luciferase activity was measured using Dual-luciferase™ reporter assay system from Promega Corporation following the manufacturer's instructions. β-Galactosidase was measured using Galacto-Star™ assay kit from TROPIX following the manufacturer's instructions. All luciferase and β-galactosidase activities were normalized using Renilla luciferase as a standard. Fold activities were calculated by dividing normalized relative light units (“RLU”) in ligand treated cells with normalized RLU in DMSO treated cells (untreated control)."}, "GAL4RXR + VP16DmEcR": {"target": "T2, GAL4RXR + VP16DmEcR (Drosophila melanogaster, UniProt P34021)", "T2 sequence (P34021 254-878)": "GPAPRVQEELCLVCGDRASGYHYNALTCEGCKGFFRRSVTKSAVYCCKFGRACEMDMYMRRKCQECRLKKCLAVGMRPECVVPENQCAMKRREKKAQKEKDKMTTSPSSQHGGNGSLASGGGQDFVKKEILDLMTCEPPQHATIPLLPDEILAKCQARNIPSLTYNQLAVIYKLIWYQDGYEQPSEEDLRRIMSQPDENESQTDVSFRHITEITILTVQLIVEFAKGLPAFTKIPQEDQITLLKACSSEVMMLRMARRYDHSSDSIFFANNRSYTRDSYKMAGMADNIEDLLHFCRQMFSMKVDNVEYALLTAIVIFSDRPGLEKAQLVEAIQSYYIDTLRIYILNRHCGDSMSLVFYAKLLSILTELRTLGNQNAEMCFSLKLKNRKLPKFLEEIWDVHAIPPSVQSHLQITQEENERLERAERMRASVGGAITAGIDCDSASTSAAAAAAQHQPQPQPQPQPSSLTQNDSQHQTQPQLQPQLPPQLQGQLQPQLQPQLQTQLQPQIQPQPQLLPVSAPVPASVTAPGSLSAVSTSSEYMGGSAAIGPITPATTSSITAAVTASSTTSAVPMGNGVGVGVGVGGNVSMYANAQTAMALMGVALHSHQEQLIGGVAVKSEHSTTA", "T2 sequence (P28700 206-467 partner limits assumed)": "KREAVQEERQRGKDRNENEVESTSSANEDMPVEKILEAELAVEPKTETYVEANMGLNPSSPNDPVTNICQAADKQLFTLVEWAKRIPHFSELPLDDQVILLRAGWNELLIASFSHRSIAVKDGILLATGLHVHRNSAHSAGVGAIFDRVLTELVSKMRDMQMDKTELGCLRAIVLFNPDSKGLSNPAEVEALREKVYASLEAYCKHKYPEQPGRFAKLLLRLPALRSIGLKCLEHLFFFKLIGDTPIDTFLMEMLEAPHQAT", "experiment": "Transactivation of reporter genes through switch 1.4 in CV1 cells", "assay_type": "cell-based", "parameters": "expressed in transfected cells; host or cells: CV1 cells (transient co-transfection)", "settings": "switch 1.4 GAL4RXR + VP16DmEcR, pGAL4RELuc", "experimental": "This construct was prepared in the same way as switch 1.3 except CfEcRCDEF was replaced with DmEcRCDEF (SEQ ID NO: 6).\nThe same procedures described for NIH3T3 cells were followed for CV1 cells\nas §1"}}}
{"smiles": "CCc1c(OC)cccc1C(=O)NN(C(=O)c1cc(C)cc(C)c1)C(C)(C)C", "note": "[N-(2-ethyl-3-methoxybenzoyl)-N′-(3,5-dimethylbenzoyl)-N′-tert-butylhydrazine]", "values": [{"measurement": "Mean Fold Activation with 50 μM N-(2-ethyl-3-methoxybenzoyl)-N′-(3,5-dimethylbenzoyl)-N′-t-butylhydrazine", "setting": "DmVgRXR + MmRXR", "result": 14, "unit": "fold"}, {"measurement": "Mean Fold Induction at 1.0 μM Concentration", "setting": "GAL4EcR + VP16RXR; GAL4CfEcRDEF/VP16MmRXRDEF (switch 1.1), 1.0 μM ligand, 48 hr", "result": 116, "unit": "fold"}, {"measurement": "Mean Fold Activation Through N-(2-ethyl-3-methoxybenzoyl)-N′-(3,5-dimethylbenzoyl)-N′-t-butylhydrazine", "setting": "GAL4EcR + VP16RXR; switch 1.1 GAL4EcR + VP16RXR, pGAL4RELuc", "result": 1118, "unit": "fold"}, {"measurement": "Mean Fold Activation Through N-(2-ethyl-3-methoxybenzoyl)-N′-(3,5-dimethylbenzoyl)-N′-t-butylhydrazine", "setting": "GAL4RXR + VP16DmEcR", "result": 80, "unit": "fold"}]}
